Data from patent US7605272B2, “IGF-1R inhibitor” (Kyowa Hakko Kirin Co., Ltd., priority 2005, dated 2009).
Structures can show the parent of a compound that is named as a salt. Where two headings read alike, the source gives them in different places.

Experiments:
NCI-H929 = assay: Cytostatic activity on human multiple myeloma cell line NCI-H929 (WST-1); assay type: cell-based; settings: for inhibition at 10 µM / inhibition at 1 µM: Homo sapiens, NCI-H929, 72 h; for inhibition at 10 µM: read-out: cytostatic rate (%) H929 (10 μmol/L); for inhibition at 1 µM: read-out: cytostatic rate (%) H929 (1 μmol/L)
How it was run: (§1)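 Cells pre-cultured 24 h at 37 °C, 5% CO2, then exposed 72 h to compound at final 1 or 10 μmol/L (0.1% DMSO). WST-1 added for 2 h, absorbance at 450 nm (ref 690 nm). Cytostatic rate = 100 minus relative growth, with DMSO control as 100% and blank as 0%.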

KMS-11 = assay: Cytostatic activity on human multiple myeloma cell line KMS-11 (WST-1); assay type: cell-based; settings: for inhibition at 10 µM / inhibition at 1 µM: Homo sapiens, KMS-11, 72 h; for inhibition at 10 µM: read-out: cytostatic rate (%) KMS-11 (10 μmol/L); for inhibition at 1 µM: read-out: cytostatic rate (%) KMS-11 (1 μmol/L)
How it was run: as §1

AsPC-1 = assay: Cytostatic activity on human pancreatic cancer cell line AsPC-1 (WST-1); assay type: cell-based; settings: for cytostatic rate (%) AsPC-1 (10 μmol/L): 72 hours; for inhibition at 10 µM: Homo sapiens, ASPC1, 72 h
Procedure: (§2) The cytostatic rates of the test compound on the human pancreatic cancer cell line AsPC-1 and the human colon cancer cell line Colo205 were determined in the following manner.
(§3) For culturing AsPC-1, RPMI 1640 medium containing 20% fetal bovine serum, 1 mmol/L sodium pyruvate, 10 mmol/L HEPES, 4.5 g/L glucose and penicillin/streptomycin (1:1). The Colo205 cell was cultured using RPMI 1640 medium containing 10% fetal bovine serum, 1 mmol/L sodium pyruvate, 10 mmol/L HEPES, 4.5 g/L glucose and penicillin/streptomycin (1:1) was used. Each 80 μL of the AsPC-1 cell having a concentration of 5×10^4 cells/mL (or the Colo205 having a concentration of 5×10^4 cells/mL) was inoculated to wells of a TC MICROWELL 96F plate (Nalge Nunc International, Catalog No. 167008) and was cultured in a 5% carbon dioxide gas incubator at 37° C. for 24 hours. Each 20 μL of a solution of the test compound in DMSO which was prepared to make the final concentration to 1 μmol/L or 10 μmol/L, was added to each well. Each 20 μL of DMSO was added to the control well and the blank well to a final concentration of 0.1%. After adding the test compound, the cell was incubated in a 5% carbon dioxide gas incubator at 37° C. for 72 hours except for the blank well. After adding 20 μL of WST-1 reagent which was diluted to 50% by RPMI medium to each well, the cells were further incubated at 37° C. for 2 hours. Then, the absorbances at 450 nm (reference wavelength: 690 nm) were determined with a microplate spectrophotometer SPECTRA max 340PC. The cytostatic rate (%) was then determined in the similar manner to the above multiple myeloma cell lines.

Colo205 = assay: Cytostatic activity on human colon cancer cell line Colo205 (WST-1); assay type: cell-based; settings: for cytostatic rate (%) Colo205 (10 μmol/L): 72 hours; for inhibition at 10 µM: Homo sapiens, COLO 205, 72 h
Procedure: as §2, §3

IGF-1R = biological target: T1, IGF-1R (Homo sapiens, UniProt P08069); assay: IGF-1R inhibitory activity (kinase reaction, time-resolved fluoroimmunoassay); assay type: biochemical; settings: test compound 10 μmol/L
T1 construct: purchased Upstate Co. 14-465
How it was run: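 Compounds were tested at a single 10 μmol/L concentration. Each was incubated with recombinant IGF-1R (200 μg/L), 10 mmol/L ATP, MgCl2/MnCl2 and Na3VO4 (pH 7.5) on immobilized poly(Glu-Tyr) peptide for 30 min at 24° C. Eu-anti-phosphotyrosine time-resolved fluorescence (340/615 nm) gave relative activity against no-compound and no-enzyme wells, reported as % inhibition.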

[1] = 10 μmol/L, read-out: cytostatic rate (%) AsPC-1 (10 μmol/L)
[2] = 10 μmol/L, read-out: cytostatic rate (%) Colo205 (10 μmol/L)
[3] = IGF-1R active recombinant enzyme

T1 sequence (P08069 959-1367 limits assumed): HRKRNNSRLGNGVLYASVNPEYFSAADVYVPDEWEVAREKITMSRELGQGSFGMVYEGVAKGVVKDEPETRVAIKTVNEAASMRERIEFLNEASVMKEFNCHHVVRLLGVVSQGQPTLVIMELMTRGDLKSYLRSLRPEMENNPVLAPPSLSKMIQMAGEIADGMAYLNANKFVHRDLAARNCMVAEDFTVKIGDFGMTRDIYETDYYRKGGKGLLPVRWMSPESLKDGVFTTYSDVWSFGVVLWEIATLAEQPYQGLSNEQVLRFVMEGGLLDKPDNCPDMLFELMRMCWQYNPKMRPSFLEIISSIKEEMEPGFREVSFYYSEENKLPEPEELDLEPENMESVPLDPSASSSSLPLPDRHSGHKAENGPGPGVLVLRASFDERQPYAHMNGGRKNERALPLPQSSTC

| inhibition at 10 µM (IGF-1R; [3]) [%] | SMILES | inhibition at 10 µM (AsPC-1; [1]) [%] | inhibition at 10 µM (Colo205; [2]) [%] | inhibition at 1 µM (NCI-H929; 1 μmol/L, 72 hours) [%] | inhibition at 1 µM (KMS-11; 1 μmol/L, 72 hours) [%] | also measured |
| --- | --- | --- | --- | --- | --- | --- |
|  | Cc1ccsc1C(=O)Nc1cc(C(=O)N2CCOCC2)ccc1/C=C/c1n[nH]c2ccccc12.Cl [Compound 115, (E)-N-{2-[2-(1H-indazol-3-yl)vinyl]-5-(morpholin-4-ylcarbonyl)phenyl}-3-methylthiophene-2-carboxamide hydrochloride] |  |  |  |  | cytostatic rate (%) H929 (10 μmol/L) (NCI-H929; 10 μmol/L, 72 hours): 120.0%; cytostatic rate (%) KMS-11 (10 μmol/L) (KMS-11; 10 μmol/L, 72 hours): 115.5%; cytostatic rate (%) AsPC-1 (10 μmol/L) (AsPC-1; 10 μmol/L): 108.7%; cytostatic rate (%) Colo205 (10 μmol/L) (Colo205; 10 μmol/L): 121.6%; inhibitory activity (%) at 10 μmol/L (IGF-1R): 100.1% |
| 99.5 | Nc1cccc2c1C(=O)N(c1cc3c(cc1/C=C/c1n[nH]c4ccccc14)OCO3)C2=O [Compound 152, (E)-4-amino-2-{6-[2-(1H-indazol-3-yl)vinyl]benzo[1,3]dioxol-5-yl}isoindole-1,3-dione] | 72.1 | 86.7 |  |  | inhibition at 10 µM (NCI-H929; 10 μmol/L, 72 hours): 122%; inhibition at 10 µM (KMS-11; 10 μmol/L, 72 hours): 116% |
| 99.8 | Nc1ccc2c(c1)C(=O)N(c1cc3c(cc1/C=C/c1n[nH]c4ccccc14)OCO3)C2=O [Compound 153, (E)-5-amino-2-{6-[2-(1H-indazol-3-yl)vinyl]benzo[1,3]dioxol-5-yl}isoindole-1,3-dione] | 77 | 114 |  |  | inhibition at 10 µM (NCI-H929; 10 μmol/L, 72 hours): 122%; inhibition at 10 µM (KMS-11; 10 μmol/L, 72 hours): 129% |
| 102 | Nc1cccc2c1C(=O)N(c1ccccc1/C=C/c1n[nH]c3ccccc13)C2=O [Compound 194, (E)-4-amino-2-{2-[2-(1H-indazol-3-yl)vinyl]phenyl}isoindole-1,3-dione] | 75.3 | 97.9 |  |  | inhibition at 10 µM (NCI-H929; 10 μmol/L, 72 hours): 119%; inhibition at 10 µM (KMS-11; 10 μmol/L, 72 hours): 143% |
| 96.6 | CN(C(=O)c1ccc[nH]1)c1cc(C(=O)N2CCOCC2)ccc1/C=C/c1n[nH]c2ccccc12 [Compound 217, (E)-N-{2-[2-(1H-indazol-3-yl)vinyl]-5-(morpholin-4-ylcarbonyl)phenyl}-N-methylpyrrole-2-carboxamide hydrochloride] | 91.9 | 122 | 113 | 128 |  |
| 98.7 | Cc1ccsc1C(=O)Nc1cc(C(=O)N2CCN(S(C)(=O)=O)CC2)ccc1/C=C/c1n[nH]c2ccccc12 [Compound 222, (E)-N-{2-[2-(1H-indazol-3-yl)vinyl]-5-(4-methanesulfonylpiperazin-1-ylcarbonyl)phenyl}-3-methylthiophene-2-carboxamide hydrochloride] | 114 | 123 | 118 | 108 |  |
| 106 | Cc1ccsc1C(=O)Nc1cc(CN2CC[C@@H](N)C2)ccc1/C=C/c1n[nH]c2ccccc12 [Compound 233, (R)-(E)-N-{5-(3-aminopyrrolidin-1-ylmethyl)-2-[2-(1H-indazol-3-yl)vinyl]phenyl}-3-methylthiophene-2-carboxamide] | 89.1 | 123 | 118 | 102 |  |
| 101 | Cc1ccsc1C(=O)Nc1cc(CN2CCN(CCO)CC2)ccc1/C=C/c1n[nH]c2ccccc12 [Compound 239, (E)-N-{5-[4-(2-hydroxyethyl)piperazin-1-ylmethyl]-2-[2-(1H-indazol-3-yl)vinyl]phenyl}-3-methylthiophene-2-carboxamide] | 102 | 121 | 115 | 152 |  |
| 101 | COCCN(CCN(C)C)C(=O)c1ccc(/C=C/c2n[nH]c3ccccc23)c(NC(=O)c2sccc2C)c1 [Compound 241, (E)-N-{5-[N-(2-dimethylaminoethyl)-N-(2-methoxyethyl)carbamoyl]-2-[2-(1H-indazol-3-yl)vinyl]phenyl}-3-methylthiophene-2-carboxamide hydrochloride] | 104 | 121 | 112 | 118 |  |
|  | Cc1ccsc1C(=O)Nc1cc(CN2CCNCC2)ccc1/C=C/c1n[nH]c2ccccc12 [Compound 242] |  |  |  |  | cytostatic rate (%) H929 (1 μmol/L) (NCI-H929; 1 μmol/L, 72 hours): 111.1%; cytostatic rate (%) KMS-11 (1 μmol/L) (KMS-11; 1 μmol/L, 72 hours): 106.8%; cytostatic rate (%) AsPC-1 (10 μmol/L) (AsPC-1; 10 μmol/L): 87.1%; cytostatic rate (%) Colo205 (10 μmol/L) (Colo205; 10 μmol/L): 119.7%; inhibitory activity (%) at 10 μmol/L (IGF-1R; [3]): 102.1% |
| 99.9 | Cc1ccsc1C(=O)Nc1cc(CNCCN2CCOCC2)ccc1/C=C/c1n[nH]c2ccccc12 [Compound 245, (E)-N-{2-[2-(1H-indazol-3-yl)vinyl]-5-[2-(morpholin-4-yl)ethylaminomethyl]phenyl}-3-methylthiophene-2-carboxamide] | 102 | 121 | 126 | 118 |  |
| 102 | Cc1ccsc1C(=O)Nc1cc(N2CCOCC2)ccc1/C=C/c1n[nH]c2ccccc12 [Compound 247, (E)-N-{2-[2-(1H-indazol-3-yl)vinyl]-5-morpholin-4-ylphenyl}-3-methylthiophene-2-carboxamide monohydrochloride] | 117 | 123 | 127 | 133 |  |
| 98.7 | Cc1ccsc1C(=O)Nc1cc(CN(CCO)CCN2CCOCC2)ccc1/C=C/c1n[nH]c2ccccc12 [Compound 253, (E)-N-{5-[N-(2-hydroxyethyl)-2-(morpholin-4-yl)ethylaminomethyl]-2-[2-(1H-indazol-3-yl)vinyl]phenyl}-3-methylthiophene-2-carboxamide] | 100 | 122 | 119 | 109 |  |
|  | CCN(CC)CCOc1ccc(/C=C/c2n[nH]c3ccccc23)c(NC(=O)c2sccc2C)c1OC [Compound 263, (E)-N-{3-(2-diethylaminoethoxy)-6-[2-(1H-indazol-3-yl)vinyl]-2-methoxymephenyl}-3-methylthiophene-2-carboxamide] |  |  |  |  | cytostatic rate (%) H929 (1 μmol/L) (NCI-H929; 1 μmol/L, 72 hours): 116.0%; cytostatic rate (%) KMS-11 (1 μmol/L) (KMS-11; 1 μmol/L, 72 hours): 126.2%; cytostatic rate (%) AsPC-1 (10 μmol/L) (AsPC-1; 10 μmol/L): 103.4%; cytostatic rate (%) Colo205 (10 μmol/L) (Colo205; 10 μmol/L): 120.5%; inhibitory activity (%) at 10 μmol/L (IGF-1R; [3]): 100.9% |
| 97.9 | Nc1cccc2c1C(=O)N(c1cc(C(=O)N3CCOCC3)ccc1/C=C/c1n[nH]c3ccccc13)C2=O [Compound 288, (E)-4-amino-N-{2-[2-(1H-indazol-3-yl)vinyl]-5-(morpholin-4-ylcarbonyl)phenyl}isoindole-1,3-dione] | 94.5 | 120 | 118 | 109 |  |
| 105 | Cc1ccsc1C(=O)Nc1cc(CN2CCN(CC(C)(C)O)CC2)ccc1/C=C/c1n[nH]c2ccccc12 [Compound 312, (E)-N-{5-[4-(2-hydroxy-2-methylpropyl)piperazin-1-ylmethyl]-2-[2-(1H-indazol-3-yl)vinyl]phenyl}-3-methylthiophene-2-carboxamide] |  |  |  |  | inhibition at 1 µM (NCI-H929; NCI-H929 cells, test compound 1 μmol/L, WST-1): 115%; inhibition at 1 µM (KMS-11; KMS-11 cells, test compound 1 μmol/L, WST-1): 108%; inhibition at 10 µM (AsPC-1; AsPC-1 cells, test compound 10 μmol/L, WST-1, read-out: cytostatic rate (%) AsPC-1 (10 μmol/L)): 101%; inhibition at 10 µM (Colo205; Colo205 cells, test compound 10 μmol/L, WST-1, read-out: cytostatic rate (%) Colo205 (10 μmol/L)): 120% |
